The data set is described as follows: in vitro. The note with it: human.

The structures appear in SMILES notation. Values after ≈ are worked out from the molar mass of the structure shown.

As to `CCCCCC(=O)NC12C(=O)c3c(N)cccc3C1(OC(=O)CCCCC)Oc1cc(C(C)C)ccc12` (stereo not shown) [Example 97, 1-amino-9b-hexanamido-7-isopropyl-10-oxo-9b,10-dihydro-4bH-benzo[d]indeno[1,2-b]furan-4b-yl hexanoate], the CC50 was determined as 8.8 µg/mL (≈ 17.4 µM). For the setting “Picorana CC50”, this compound yielded a CC50 greater than 50 µg/mL.

As for `CCCC(=O)N[C@@]12C(=O)c3c(N)cccc3[C@]1(OC(=O)CCC)Oc1cc(C(C)C)ccc12` [Example 95, (4bR,9bS)-1-Amino-9b-butyramido-7-isopropyl-10-oxo-9b,10-dihydro-4bH-indeno[1,2-b]benzofuran-4b-yl butyrate], the CC50 is 26 µg/mL (≈ 57.7 µM). Further, the CC50 (Picorana CC50) worked out at 38.1 µg/mL (≈ 84.5 µM). The corresponding values for `Cc1ccc2c(Cl)c(C(=O)NC34C(=O)c5c(N)cccc5C3(O)Oc3cc(C(C)C)ccc34)sc2c1` (stereo not shown) [Example 270, N-(1-Amino-4b-hydroxy-7-isopropyl-10-oxo-9b,10-dihydro-4bH-indeno[1,2-b]benzofuran-9b-yl)-3-chloro-6-methylbenzo[b]thiophene-2-carboxamide] are 5.93 µg/mL (≈ 11.4 µM) and 6.57 µg/mL (≈ 12.7 µM). The matching figures for `Cc1ccc(C(=O)NC23C(=O)c4c(N)cccc4C2(O)Oc2cc(C(C)C)ccc23)s1` (stereo not shown) [Example 216, N-(1-Amino-4b-hydroxy-7-isopropyl-10-oxo-9b,10-dihydro-4bH-indeno[1,2-b]benzofuran-9b-yl)-5-methylthiophene-2-carboxamide]: 9.69 µg/mL (≈ 22.3 µM) and 4.75 µg/mL (≈ 10.9 µM). `CC(C)c1ccc2c(c1)OC1(O)c3cccc(N4CCC(O)CC4)c3C(=O)C21O` (stereo not shown) [Example 147, 4b,9b-Dihydroxy-1-(4-hydroxypiperidin-1-yl)-7-isopropyl-4bH-benzo[d]indeno[1,2-b]furan-10(9bH)-one] showed a CC50 (Picorana CC50) of 32.9 µg/mL (≈ 83.1 µM).

`COc1ccc(CN2CCN(c3cccc4c3C(=O)C3(O)c5ccc(C(C)C)cc5OC43O)CC2)cc1` (stereo not shown) [Example 149, 4b,9b-Dihydroxy-7-isopropyl-1-(4-(4-methoxybenzyl)piperazin-1-yl)-4bH-benzo[d]indeno[1,2-b]furan-10(9bH)-one] had a CC50 (Picorana CC50) of 8.48 µg/mL (≈ 16.9 µM). As to `CC(=O)OC12Oc3cc(C(C)C)ccc3C1(OC(C)=O)C(O)c1ccccc12` (stereo not shown) [Example 127, 10-Hydroxy-7-isopropyl-9b,10-dihydro-4bH-indeno[1,2-b]benzofurane-4b,9b-diyl diacetate], for the setting “Picorana CC50”, the CC50 was 37.6 µg/mL. With `CC(C)c1ccc2c(c1)OC1(O)c3cccc(N)c3C(=O)C21NC(=O)c1ccc(N)o1` (stereo not shown) [Example 232, 5-amino-N-(1-amino-4b-hydroxy-7-isopropyl-10-oxo-9b,10-dihydro-4bH-indeno[1,2-b]benzofuran-9b-yl)furane-2-carboxamide], the CC50 is greater than 10 µg/mL. For the setting “Picorana CC50”, this compound gave a CC50 greater than 50 µg/mL. `CC(C)c1ccc2c(c1)OC1(O)c3cccc(N)c3C(=O)C21NS(=O)(=O)C(F)(F)F` (stereo not shown) [Example 176, N-(1-Amino-4b-hydroxy-7-isopropyl-10-oxo-9b,10-dihydro-4bH-benzo[d]indeno[1,2-b]furan-9b-yl)-1,1,1-trifluoromethanesulfonamide] had a CC50 greater than 10 µg/mL. Compound `CCNc1cccc2c1C(=O)C1(O)c3ccc(C(C)C)cc3OC21O` (stereo not shown) [Example 133, 1-(Ethylamino)-4b,9b-dihydroxy-7-isopropyl-4bH-indeno[1,2-b]benzofuran-10(9bH)-one] came in with a CC50 (Picorana CC50) of 1.58 µg/mL (≈ 4.66 µM). Consider `Cc1ccn2cc(C(=O)NC34C(=O)c5c(N)cccc5C3(O)Oc3cc(C(C)C)ccc34)nc2c1` (stereo not shown) [Example 280, N-(1-Amino-4b-hydroxy-7-isopropyl-10-oxo-9b,10-dihydro-4bH-indeno[1,2-b]benzofuran-9b-yl)-7-methylimidazo[1,2-a]pyridine-2-carboxamide], for which the CC50 was greater than 10 µg/mL.

Compound `CC(C)C(=O)NC12Oc3cc(C(C)C)ccc3C1(NC(=O)C(C)C)C(=O)c1ccccc12` (stereo not shown) [Example 125] had a CC50 (Picorana CC50) of 45.5 µg/mL (≈ 105 µM). `CCCCC(=O)OC12Oc3cc(C(C)C)ccc3C1(NC(C)=O)C(=O)c1ccccc12` (stereo not shown) [Example 112, 9b-Acetamido-7-isopropyl-10-oxo-9b,10-dihydro-4bH-indeno[1,2-b]benzofuran-4b-yl pentanoate] gave a CC50 (Picorana CC50) of 42 µg/mL (≈ 99.6 µM).

For `CCNC(=O)N[C@@]12C(=O)c3ccccc3[C@]1(O)Oc1cc(C(C)C)ccc12` [Example 102, 1-Ethyl-3-((4bS,9bS)-4b-hydroxy-7-isopropyl-10-oxo-9b,10-dihydro-4bH-indeno[1,2-b]benzofuran-9b-yl)urea], the CC50 (Picorana CC50) is greater than 50 µg/mL. On the same count and under the same terms, to `CC(C)c1ccc2c(c1)OC1(O)c3ccc(N4CCOCC4)cc3C(=O)C21O` (stereo not shown) [Example 140, 4b,9b-Dihydroxy-7-isopropyl-2-morpholinyl-4bH-benzo[d]indeno[1,2-b]furan-10(9bH)-one] belongs 2.08 µg/mL (≈ 5.45 µM). Consider `CC(C)c1ccc2c(c1)OC1(O)c3cccc(N)c3C(=O)C21NC(=O)CCl` (stereo not shown) [Example 194, N-(1-Amino-4b-hydroxy-7-isopropyl-10-oxo-9b,10-dihydro-4bH-benzo[d]indeno[1,2-b]furan-9b-yl)-2-chloroacetamide], for which the CC50 is greater than 10 µg/mL. On to `CCCC(=O)NC12C(=O)c3ccccc3C1(OC(=O)CCC)Oc1cc(C(C)C)ccc12` (stereo not shown) [Example 89, Butyric acid 9b-butyrylamino-7-isopropyl-10-oxo-9b,10-dihydro-5-oxa-indeno[2,1-a]inden-4b-yl ester], for which the CC50 (Picorana CC50) is greater than 50 µg/mL.

On to `CCOC(=O)OC12Oc3cc(C(C)C)ccc3C1(NC(C)=O)C(=O)c1ccccc12` (stereo not shown) [Example 116, 9b-Acetamido-7-isopropyl-10-oxo-9b,10-dihydro-4bH-benzo[d]indeno[1,2-b]furan-4b-yl ethyl carbonate], for which the CC50 (Picorana CC50) came out at 41.7 µg/mL (≈ 102 µM).

Turning to `CCCCCCCC(=O)NC12C(=O)c3ccccc3C1(O)Oc1cc(C(C)C)ccc12` (stereo not shown) [Example 90], the CC50 (Picorana CC50) came out at 34 µg/mL (≈ 80.5 µM). As to `CC(C)c1ccc2c(c1)OC1(O)c3ccccc3C(=O)C21NC(=O)c1ccccn1` (stereo not shown) [Example 218, N-(4b-Hydroxy-7-isopropyl-10-oxo-9b,10-dihydro-4bH-indeno[1,2-b]benzofuran-9b-yl)picolinamide], the CC50 is greater than 10 µg/mL. Besides, the CC50 (Picorana CC50) amounted to 8.49 µg/mL (≈ 21.2 µM).

The compound `CC(C)c1ccc2c(c1)OC1(O)c3cccc(N)c3C(=O)C21NS(C)(=O)=O` (stereo not shown) [Example 168, N-(1-Amino-4b-hydroxy-7-isopropyl-10-oxo-9b,10-dihydro-4bH-benzo[d]indeno[1,2-b]furan-9b-yl)methanesulfonamide] returned a CC50 greater than 10 µg/mL.

As for `CC(C)c1ccc2c(c1)OC1(O)c3ccc(N(C)C)cc3C(=O)C21O` (stereo not shown) [Example 150, 2-(Dimethylamino)-4b,9b-dihydroxy-7-isopropyl-4bH-benzo[d]indeno[1,2-b]-furan-10(9bH)-one], the CC50 (Picorana CC50) stood at 1.32 µg/mL (≈ 3.89 µM). On the same count and under the same terms, to `CC(C)c1ccc2c(c1)OC1(O)c3cccc(N4CCCCC4)c3C(=O)C21O` (stereo not shown) [Example 141, 4b,9b-Dihydroxy-7-isopropyl-1-piperidinyl-4bH-benzo[d]indeno-[1,2-b]furan-10(9bH)-one] belongs 3.47 µg/mL (≈ 9.14 µM). `Cc1onc(-c2c(F)cccc2Cl)c1C(=O)NC12C(=O)c3c(N)cccc3C1(O)Oc1cc(C(C)C)ccc12` (stereo not shown) [Example 228, N-(1-Amino-4b-hydroxy-7-isopropyl-10-oxo-9b,10-dihydro-4bH-indeno[1,2-b]benzofuran-9b-yl)-3-(2-chloro-6-fluorophenyl)-5-methylisooxazole-4-carboxamide]: the CC50 is greater than 10 µg/mL. For the setting “Picorana CC50”, this compound yielded a CC50 of 24.1 µg/mL (≈ 43.9 µM).

Source of the values: patent US9890133B2 (priority 2011, dated 2018).
